In patent US20110089073A1, “Methods And Compositions For Hydrophobic Modification Of Oral Cavity Surfaces” (The Procter & Gamble Company, priority 2009, published 2011):

Columns and labels:
[1] = In vitro erosion cycling protocol (citric acid challenge, TMR); parameters: species or system human; conditions: teeth treated with compositions containing the organophosphate
[2] = Dissolution of pretreated hydroxy apatite powder in acetate buffer pH 4.5
Procedure: In this protocol, HAP powder is pretreated with dentifrice slurry supernatant (20 g supernate/200 mg HAP powder) followed by three times washing with water. After the last wash, 2 ml of water is added and vortexed to form a uniform slurry. In a separate beaker, 25 ml of 0.1M acetate buffer is prepared and pH adjusted to 4.5. To this buffer solution having initial pH of 4.5, a sample of 0.5 ml of pre-treated HAP slurry is added and dissolution profile of the pretreated HAP powder is monitored via changes in pH of the acetate buffer solution. The pH change is measured and recorded using a Brinkman Titrino titrator device for 30 minutes. With HAP dissolution, pH increases and the pH change is compared to that of a plain water treated HAP as control and is used to calculate percent inhibition of HAP mineral loss.

[3] = Water contact angle method on treated enamel chips; parameters: species or system bovine
Procedure: A water contact angle method is used to determine the degree of hydrophobicity imparted by the present compositions to tooth surfaces. […] The method uses polished bovine enamel chips that are cleaned using a prophy paste followed by an acetone wipe and water rinse in a sonicator. Chips are then allowed to air dry for 60-90 minutes, and then baseline water contact angles are measured using prop Shape Analysis System DSA 10-MK2 from KRUSS. Chips with baseline water contact angle of about 48.00±5.00 are selected and randomized into groups of three per treatment. Following randomization each group of three chips are treated with a solution or dentifrice slurry (1:3 ratio) containing the test ingredient followed by a water rinse. The chips are then soaked in human saliva for an hour at 37° C. After the saliva soak, the chips are removed, rinsed with water and air dried. Contact angle reading is taken after at least 2 hours of drying. Water or regular toothpaste (without organophosphate) are used as controls. […] An increase in contact angle (post-treatment value—baseline) represents increased hydrophobic character of the surface; a decrease represents increased hydrophilic character of the surface.

[4] = Table 1, vs water treated HAP, concentrations as in label
[5] = Table 3, with or without water soluble hydrophilic compound
[6] = Table 1, change from baseline after treatment, 1 h saliva soak, concentrations as in label

Molecule | Tooth mineral surface loss from acid exposure [1] | % Inhibition of HAP Surface Loss [2, 4] | Δ Water Contact Angle [3, 6] | also measured
Sodium Dodeceth-1 Phosphate [1% Sodium Dodeceth-1 Phosphate] | significantly less tooth mineral surface loss | 94.5% | 32.13 | % Inhibition of HAP Surface Loss ([2]; Table 2, concentration 0.25%): 58.56%; % Inhibition of HAP Surface Loss ([2]; Table 2, concentration 0.5%): 75.69%; % Inhibition of HAP Surface Loss ([2]; Table 2, concentration 1.0%): 92.03%; % Inhibition of HAP Surface Loss ([2]; Table 2, concentration 2.0%): 92.83%; % Inhibition of HAP Surface Loss [2, 5]: 94.49%; Δ Water Contact Angle ([3]; Table 2, concentration 0.25%): 19.07; Δ Water Contact Angle ([3]; Table 2, concentration 0.5%): 26.57; Δ Water Contact Angle ([3]; Table 2, concentration 1.0%): 43.77; Δ Water Contact Angle ([3]; Table 2, concentration 2.0%): 61.40; Δ Water Contact Angle [3, 5]: 32.13
CCCCCCCCCCCCOS(=O)(=O)[O-].[Na+] [1% SLS, sodium lauryl sulfate, reference compound] | – | – | 0.23 | –
Potassium Laureth-3 Phosphate [1% Potassium Laureth-3 Phosphate] | – | 94.8% | 23.2 | –
CCCCCCCCCCCCOP(=O)([O-])[O-].[Na+].[Na+] [Sodium dodecyl phosphate] | significantly less tooth mineral surface loss | – | – | –
Potassium Laureth Phosphate [1% Potassium Laureth Phosphate] | – | 89.7% | 45.43 | –
Sodium Dodeceth-9 Phosphate [1% Sodium Dodeceth-9 Phosphate] | significantly less tooth mineral surface loss | 45.24% | 16.43 | –
